Consider four compounds from PubChem BioAssay AID386.

Structures are written as SMILES.

For the assay, the target named is GTP-binding protein Di-Ras1 (Homo sapiens) (UniProt O95057). Description: DIRAS1 binders by thermal stabilization, biophysical, recombinant human GTPase, DSF (AID 386). The conditions noted are these: SYPRO orange, at 10 µM, protein 2 µM, buffer 10 mM HEPES, pH 7.5, NaCl 150 mM, stronger effect = higher value.
Sequence of GTP-binding protein Di-Ras1 (Homo sapiens) (O95057 whole entry, looked up): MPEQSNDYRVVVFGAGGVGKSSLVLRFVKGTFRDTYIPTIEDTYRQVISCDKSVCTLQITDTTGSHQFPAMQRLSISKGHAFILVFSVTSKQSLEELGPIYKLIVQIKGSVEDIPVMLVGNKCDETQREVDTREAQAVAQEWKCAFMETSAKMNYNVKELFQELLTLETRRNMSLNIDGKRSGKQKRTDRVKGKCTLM
Take `NS(=O)(=O)c1ccc(Nc2nc(OCC3CCCCC3)c3[nH]cnc3n2)cc1`: the Tm shift came to 2.1 Celsius. The value for `CN[C@@H]1C[C@H]2OC(C)([C@@H]1OC)n1c3ccccc3c3c4c(c5c6ccccc6n2c5c31)C(=O)NC4` was 2.6 Celsius; that for `COc1ccc(S(O)(O)N(CCO)c2ccccc2CN(C)C/C=C/c2ccc(Cl)cc2)cc1` was 4.4 Celsius. The figure for `O=c1c(O)c(-c2ccc(O)c(O)c2)oc2cc(O)cc(O)c12` is 3.3 Celsius.
